# Test results: patent US20080153792A1, “Drug Identification and Treatment Method” (priority 2006, published 2008)
# Columns and labels:
# androgen receptor = androgen receptor (Homo sapiens, UniProt P10275); assay: interaction with androgen receptor
# [1] = tested on: monocyte chemoattractant protein-1 (MCP-1); assay: MCP-1 RNA in perigonadal fat tissue, quantitative RT/PCR; type: in vivo, mouse; conditions: 20 mg/kg; normalized with respect to the vehicle control
# Experimental: In another study, total RNA from perigonadal fat tissue from lean db/+ or diabetic db/db mice treated with 20 mg/kg of 17α-ethynylandrost-5-ene-3β,7β,17β-triol was isolated and processed for quantitative RT/PCR using primers specific for monocyte chemoattractant protein-1 (MCP-1) using an iCycler iQ multicolor real time-detection system (Bio-Rad). RNA expression levels were normalized with respect to the vehicle control. […] For this study, vehicle was also administered to a control group of age matched lean heterozygous db/+ mice (n=7).
# [2] = tested on: CD1 male mice, carrageenan-λ induced pleurisy; assay: carrageenan-λ induced lung (pleural cavity) inflammation in mice; type: in vivo, mouse; conditions: 1 mg and 0.1 mg by oral gavage
# [3] = tested on: DBA/1 mice, passive collagen-induced arthritis; assay: passive collagen-induced arthritis (anti-type II collagen antibodies); type: in vivo, mouse; conditions: 40 mg/kg/day oral gavage for 14 days
# Excerpt: The capacity of formula 1 compounds to affect the course of arthritis in a passive collagen induced arthritis model of arthritis was examined essentially as previously described (E. Simelyte et al., Arthritis & Rheumatism, 52(6):1876-1884, 2005; Z. Han et al. Arthritis & Rheumatism 46(3):818-823 2002; H. Miyahara et. Clin. Immunol. Immunopathol., 69(1):69-76 1993). In this protocol, passive collagen-induced arthritis was induced in DBA/1 mice by administering anti-type II collagen antibodies, which induced an immune response against joint tissue in the animals. […] The severity of arthritis was assessed using a semiquantitative clinical scoring system. Groups of 8 animals per group were treated with 17α-ethynylandrost-5-ene-3β,7β,17β-triol at 40 mg/kg/day for 14 days or vehicle for 14 days by oral gavage. The vehicle was 30% cyclodextrin-sulfobutylether in water and the drug solution was vehicle with drug at 20 mg/mL.
# The animals were examined by measuring ankle thickness and arthritis score (4-point/paw) with a higher score indicating a more severe arthritis. The experiment was terminated after about 14 days, and histology and gene expression measurements were performed. […] A semi-quantitative scoring system was used to access synovial inflammation, extraarticular inflammation, erosion and proteogylcan loss. […]
# db/db C57BL/Ks mice = assay: glucose lowering in diabetic db/db mice; type: in vivo, mouse
# Experimental: Glucose lowering and amelioration of insulin resistance. Glucose lowering effects and amelioration of insulin resistance was assessed in the diabetic db/db mouse model of human diabetes and insulin resistance. In these studies, db/db C57BL/Ks mice of approximately 8 to 10 weeks of age were divided into groups of 10 each and then treated with a vehicle control (no drug) or 17α-ethynylandrost-5-ene-3β,7β,17β-triol by oral gavage. The compound was administered twice a day at 20 mg/kg/day (10 mg/kg dose administered twice per day), 40 mg/kg/day (20 mg/kg dose administered twice per day) or 80 mg/kg/day (40 mg/kg dose administered twice per day) for up to 28 days. Blood glucose levels were monitored twice a week during the dosing period, using a minute amount of blood (nick tail bleeds) to measure the concentration of glucose by glucometer strips. At specific times during the dosing period (day 14 and day 28), an oral glucose tolerance test (OGTT) was also performed by administering a standard oral dose of 1 g/kg glucose (approximately 40 mg in a […]) and then the fluctuation of blood glucose levels was monitored quickly thereafter after at 15, 30, 60 and 120 minutes after the glucose dose. […] Blood glucose approached 380 mg/dL in the vehicle control group and was <230 mg/dL after at least 10 days of dosing in the drug treated group.
# A treatment protocol similar to that described in example 15 was performed with db/db mice that were younger than the animals described in example 15. The animals (n=8 to 10 per group) were treated with 17α-ethynylandrost-5-ene-3β,7β,17β-triol or vehicle by oral gavage twice per day at 40 mg/kg/day (20 mg/kg dose given twice per day) and 80 mg/kg/day (40 mg/kg dose given twice per day). At the start of dosing, the animals were 6 weeks of age, before the onset of elevated glucose levels or hyperglycemia. Dosing with vehicle or drug was maintained for 32 days to determine the effect of the treatments on the onset and rate of progression of hyperglycemia in the animals. In the control group, the onset of hyperglycemia was observed after 25 days of dosing and it continued to worsen, i.e., blood glucose levels rose from normal to frank hyperglycemia, through the end of the 32 day dosing period.
# Sequence of androgen receptor (P10275 whole entry, species assumed): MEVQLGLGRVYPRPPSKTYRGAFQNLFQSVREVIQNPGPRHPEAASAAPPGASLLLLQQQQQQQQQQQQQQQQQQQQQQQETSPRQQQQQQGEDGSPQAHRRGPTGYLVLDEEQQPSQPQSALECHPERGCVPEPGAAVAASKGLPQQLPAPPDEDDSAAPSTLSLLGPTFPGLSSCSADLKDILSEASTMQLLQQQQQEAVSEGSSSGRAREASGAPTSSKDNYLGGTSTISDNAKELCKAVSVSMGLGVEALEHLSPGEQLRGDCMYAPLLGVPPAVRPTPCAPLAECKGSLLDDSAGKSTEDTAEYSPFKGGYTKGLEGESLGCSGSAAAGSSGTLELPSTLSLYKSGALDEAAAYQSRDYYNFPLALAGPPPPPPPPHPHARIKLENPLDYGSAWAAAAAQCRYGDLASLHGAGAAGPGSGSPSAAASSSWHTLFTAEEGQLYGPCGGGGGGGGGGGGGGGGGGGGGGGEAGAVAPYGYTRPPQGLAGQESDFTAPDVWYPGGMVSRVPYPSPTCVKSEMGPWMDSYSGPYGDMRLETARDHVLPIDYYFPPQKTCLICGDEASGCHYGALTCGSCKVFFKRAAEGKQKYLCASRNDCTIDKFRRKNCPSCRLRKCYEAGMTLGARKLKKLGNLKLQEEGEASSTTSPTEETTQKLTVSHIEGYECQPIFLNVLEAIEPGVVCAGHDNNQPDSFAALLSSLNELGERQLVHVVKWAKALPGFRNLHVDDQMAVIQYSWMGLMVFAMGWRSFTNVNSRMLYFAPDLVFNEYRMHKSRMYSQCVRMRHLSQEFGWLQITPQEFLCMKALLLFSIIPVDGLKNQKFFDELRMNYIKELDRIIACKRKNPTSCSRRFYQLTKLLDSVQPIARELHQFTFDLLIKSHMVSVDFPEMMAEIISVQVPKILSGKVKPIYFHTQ
structure (smiles),measurement,setting,value
"C#C[C@]1(O)CC[C@H]2[C@@H]3[C@@H](O)C=C4C[C@@H](O)CC[C@]4(C)[C@H]3CC[C@@]21C [17α-ethynylandrost-5-ene-3β,7β,17β-triol]",interaction with androgen receptor,androgen receptor,do not interact
same,decrease of levels of MCP-1,[1],about 50%
same,anti-inflammation activity versus vehicle controls,[2],statistically significant anti-inflammation activity
same,maximum clinical score,[3]; at day 7,5.1
same,clinical score at day 14,[3]; end of the protocol,4.1
same,peak glycemic excursion in OGTT,"db/db C57BL/Ks mice; 80 mg/kg b.i.d. for 28 days, 30-min post-oral glucose, vehicle approximately 400 mg/dL",< 200 mg/dL
same,progression into the hyperglycemic state,"db/db C57BL/Ks mice; 6 week old male db/db mice, 40 mg/kg",completely blocked progression
same,basal blood glucose hyperglycemic levels,"db/db C57BL/Ks mice; 8 week old male db/db mice, 40 mg/kg dose group, twice-a-day, apparent after 10 days",markedly suppressed
same,blood glucose,"db/db C57BL/Ks mice; after at least 10 days of dosing, vehicle approached 380 mg/dL",< 230 mg/dL
same,levels of glucose by the end of the 32 day dosing period,"db/db C57BL/Ks mice; db/db mice 6 weeks of age at start, 40 mg/kg/day and 80 mg/kg/day oral, twice per day",did not rise above normal levels
same,decrease in hyperglycemic blood glucose levels,"db/db C57BL/Ks mice; db/db mice 8 to 10 weeks of age, oral gavage twice a day",approximately 40%
same,glucose intolerance in OGTTs compared to vehicle,db/db C57BL/Ks mice; treated db/db animals,significant amelioration of glucose intolerance
